Reference: ChEMBL document CHEMBL1152873, “Pseurotin A and its analogues as inhibitors of immunoglobulin E [correction of immunoglobuline E] production” (Bioorg Med Chem Lett, 2009)
The source made the active and inactive calls. The calls are words filed in the database; no cut-off is given here.

Tests used:
[1] = Inhibition of IL4 and LPS-induced IgE production in BALB/c mouse spleen B cell after 6 days by ELISA; assay type: functional, tissue-based; conditions: 144 h
[2] = Inhibition of PHA-induced BALB/c mouse T cell proliferation at 10 uM; assay type: cell-based
K562 = test: Cytotoxicity against human K562 cells; assay type: functional, cell-based
[3] = Cytotoxicity against BALB/c mouse B cells assessed as cell viability; assay type: cell-based
B [4] = test: Inhibition of IL4 and LPS-induced IgG production in BALB/c mouse spleen B cell after 6 days by ELISA; assay type: functional, tissue-based
[5] = Selectivity for IgE production in BALB/c mouse spleen B cells over IgM production in BALB/c mouse spleen B cells; assay type: functional
[6] = Selectivity for IgE production in BALB/c mouse spleen B cells over IgG2a production in BALB/c mouse spleen B cells; assay type: functional
[7] = Selectivity for IgE production in BALB/c mouse spleen B cells over IgG1 production in BALB/c mouse spleen B cells; assay type: functional
B [8] = test: Inhibition of IL4 and LPS-induced IgM production in BALB/c mouse spleen B cell after 6 days by ELISA; assay type: functional, tissue-based
Lymphocyte [9] = test: Immunosuppressive activity in rat lymphocytes assessed as inhibition of mixed-lymphocyte reaction; assay type: functional, cell-based
Lymphocyte [10] = test: Immunosuppressive activity in rat lymphocytes assessed as inhibition of mixed-lymphocyte reaction at 10 uM; assay type: functional, cell-based

Row | IC50 [1] | SMILES | also measured
1 | > 10 µM | CNCC1=C(C)C(=O)[C@]2(O1)C(=O)N[C@@](OC)(C(=O)c1ccccc1)[C@@H]2O | –
2 | > 10 µM | CCCCCC[C@H](O)[C@H](O)C1=C(C)C(=O)[C@]2(O1)C(=O)N[C@@](OC)(C(=O)c1ccccc1)[C@@H]2O | –
3 | > 10 µM | COC(=O)CC[C@H](O)[C@H](O)C1=C(C)C(=O)[C@]2(O1)C(=O)N[C@@](OC)(C(=O)c1ccccc1)[C@@H]2O | –
4 | > 10 µM | CO[C@@]1(C(=O)c2ccccc2)NC(=O)[C@]2(OC(C=O)=C(C)C2=O)[C@H]1O | –
5 | > 10 µM | CC/C=C\[C@@H]1O[C@H]1C1=C(C)C(=O)[C@]2(O1)C(=O)N[C@@](OC)(C(=O)c1ccccc1)[C@@H]2O | –
6 | > 10 µM | CCOC(=O)/C=C/C1=C(C)C(=O)[C@]2(O1)C(=O)N[C@@](OC)(C(=O)c1ccccc1)[C@@H]2O | –
7 | > 10 µM | CC/C=C\[C@H](O)[C@H](O)C1=C(C)C(=O)[C@]2(O1)C(=O)N[C@@](OC)(C(=O)c1ccccc1F)[C@@H]2O | –
8 | > 10 µM | CC/C=C\[C@H](O)[C@H](O)C1=C(C)C(=O)[C@]2(O1)C(=O)N[C@@](OC)(C(=O)c1cccc(F)c1)[C@@H]2O | –
9 | > 10 µM | CO[C@@]1(C(=O)c2ccccc2)NC(=O)[C@]2(OC(/C=C/C=O)=C(C)C2=O)[C@H]1O | –
10 | > 10 µM | CO[C@@]1(C(=O)c2ccccc2)NC(=O)[C@]2(OC(/C=C/C#N)=C(C)C2=O)[C@H]1O | –
11 | > 10 µM | COC(=O)/C=C/[C@H](O)[C@H](O)C1=C(C)C(=O)[C@]2(O1)C(=O)N[C@@](OC)(C(=O)c1ccccc1)[C@@H]2O | –
12 | > 10 µM | CO[C@@]1(C(=O)c2ccccc2)NC(=O)[C@]2(OC(CNCc3ccccc3)=C(C)C2=O)[C@H]1O | –
13 | > 10 µM | C=CCNCC1=C(C)C(=O)[C@]2(O1)C(=O)N[C@@](OC)(C(=O)c1ccccc1)[C@@H]2O | –
14 | > 10 µM | CO[C@@]1(C(=O)c2ccccc2)NC(=O)[C@]2(OC(CN(C)Cc3ccccc3)=C(C)C2=O)[C@H]1O | –
15 | > 10 µM | CC/C=C/[C@H](O)[C@H](O)C1=C(C)C(=O)[C@]2(O1)C(=O)N[C@@](OC)(C(=O)c1ccccc1)[C@@H]2O | –
16 | > 10 µM | C/C=C/[C@H](O)[C@H](O)C1=C(C)C(=O)[C@]2(O1)C(=O)N[C@@](OC)(C(=O)c1ccccc1)[C@@H]2O | –
17 | > 10 µM | CCOC(=O)/C=C\C1=C(C)C(=O)[C@]2(O1)C(=O)N[C@@](OC)(C(=O)c1ccccc1)[C@@H]2O | –
18 | > 10 µM | CO[C@@]1(C(=O)c2ccccc2)NC(=O)[C@]2(OC([C@@H](O)[C@@H](O)C=C3CCCCC3)=C(C)C2=O)[C@H]1O | –
19 | > 10 µM | CCOC(=O)/C(C)=C/C1=C(C)C(=O)[C@]2(O1)C(=O)N[C@@](OC)(C(=O)c1ccccc1)[C@@H]2O | –
20 | > 10 µM | CO[C@@]1(C(=O)c2ccccc2)NC(=O)[C@]2(OC(CO)=C(C)C2=O)[C@H]1O | –
21 | > 10 µM | CO[C@@]1(C(=O)c2ccccc2)NC(=O)[C@]2(OC(/C=C/C=C/C(C)=O)=C(C)C2=O)[C@H]1O | –
22 | > 10 µM | CCC[C@H](O)[C@H](O)C1=C(C)C(=O)[C@]2(O1)C(=O)N[C@@](OC)(C(=O)c1ccccc1)[C@@H]2O | –
23 | > 10 µM | CC/C=C\[C@H]1OC(C)(C)O[C@@H]1C1=C(C)C(=O)[C@]2(O1)C(=O)N[C@@](OC)(C(=O)c1ccccc1)[C@@H]2O | –

Row | IC50 [1] | SMILES | also measured
24 | > 10 µM | CO[C@@]1(C(=O)c2ccccc2)NC(=O)[C@]2(OC([C@@H](O)[C@@H](O)CCCCc3ccccc3)=C(C)C2=O)[C@H]1O | –
25 | 3.1 µM | CCCCNCC1=C(C)C(=O)[C@]2(O1)C(=O)N[C@@](OC)(C(=O)c1ccccc1)[C@@H]2O | inhibition at 10 µM [2]: 2%; IC50 (K562): > 10 µM; IC50 [3]: > 10 µM
26 | > 10 µM | CO[C@@]1(C(=O)c2ccccc2)NC(=O)[C@]2(OC(CN3CCCCC3)=C(C)C2=O)[C@H]1O | –
27 | > 10 µM | CO[C@@]1(C(=O)c2ccccc2)NC(=O)[C@]2(OC([C@@H](O)[C@@H](O)/C=C/CCc3ccccc3)=C(C)C2=O)[C@H]1O | –
28 | > 10 µM | CC/C=C\[C@H](O)[C@H](O)C1=C(C)C(=O)[C@]2(O1)[C@@H](OC)N[C@@](OC)(C(=O)c1ccccc1)[C@@H]2O [6-O-METHOXYPSEUROTIN A] | –
29 | > 10 µM | CC/C=C\[C@H](O)[C@H](O)C1=C(C)C(=O)[C@]2(O1)C(=O)N(C)[C@@](OC)(C(=O)c1ccccc1)[C@@H]2O [7-N-METHYLPSEUROTIN A] | –
30 | > 10 µM | CC/C=C\[C@H](O)[C@H](O)C1=C(C)C(=O)[C@]2(O1)C(=O)N[C@@](OCC)(C(=O)c1ccccc1)[C@@H]2O [8-ETHOXYPSEUROTIN A] | –
31 | > 10 µM | CC/C=C\[C@H](O)[C@H](O)C1=C(C)C(=O)[C@]2(C[C@](OC)(C(=O)c3ccccc3)NC2=O)O1 [9-DEOXYPSEUROTIN A] | –
32 | 0.066 µM | CC/C=C\[C@H](O)CC1=C(C)C(=O)[C@]2(O1)C(=O)N[C@@](OC)(C(=O)c1ccccc1)[C@@H]2O [10-DEOXYPSEUROTIN A] | inhibition at 10 µM [2]: 0%; IC50 (K562): > 10 µM; IC50 [3]: 4.4 µM; Activity (B [4]): Active; Ratio [5]: 44; Ratio [6]: 23; Ratio [7]: 3.5; Activity (B [8]): Active
33 | > 10 µM | CC/C=C\[C@H](OC)[C@H](O)C1=C(C)C(=O)[C@]2(O1)C(=O)N[C@@](OC)(C(=O)c1ccccc1)[C@@H]2O [11-O-METHYLPSEUROTIN A] | –
34 | > 10 µM | CCC1CC1[C@H](O)[C@H](O)C1=C(C)C(=O)[C@]2(O1)C(=O)N[C@@](OC)(C(=O)c1ccccc1)[C@@H]2O (stereo partly specified) [12,13-CYCLOPROPYLPSEUROTIN A] | –
35 | > 10 µM | CC[C@H](Br)[C@@H](Br)[C@H](O)[C@H](O)C1=C(C)C(=O)[C@]2(O1)C(=O)N[C@@](OC)(C(=O)c1ccccc1)[C@@H]2O [12,13-DIBROMOPSEUROTIN A] | –
36 | > 10 µM | CCCC[C@H](O)[C@H](O)C1=C(C)C(=O)[C@]2(O1)C(=O)N[C@@](OC)(C(=O)c1ccccc1)[C@@H]2O [12,13-DIHYDROXYPSEUROTIN A] | –
37 | > 10 µM | CCC1OC1[C@H](O)[C@H](O)C1=C(C)C(=O)[C@]2(O1)C(=O)N[C@@](OC)(C(=O)c1ccccc1)[C@@H]2O (stereo partly specified) [13-EPOXYPSEUROTIN A] | –
38 | > 10 µM | CC/C=C\[C@H](O)[C@H](O)C1=C(C)C(=O)[C@]2(O1)C(=O)N[C@@](OC)(C(O)c1ccccc1)[C@@H]2O (stereo partly specified) [17-DIHYDROPSEUROTIN A] | –
39 | 0.0059 µM | C[C@]12C=CC(=O)C=C1CC[C@@H]1[C@@H]2[C@@H](O)C[C@@]2(C)[C@H]1CC[C@]2(O)C(=O)CO [PREDNISOLONE] | IC50 (Lymphocyte [9]): 0.078 µM; inhibition at 10 µM [2]: 84%; IC50 [3]: > 10 µM; Ratio [5]: 0.4; Ratio [6]: 0.8; Ratio [7]: 1
40 | 3.6 µM | CC/C=C\[C@H](O)[C@H](O)C1=C(C)C(=O)[C@]2(O1)C(=O)N[C@@](OC)(C(=O)c1ccccc1)[C@@H]2O [PSEUROTIN A] | IC50 (Lymphocyte [9]): > 10 µM; inhibition at 10 µM [2]: 0%; IC50 (K562): > 10 µM; IC50 [3]: > 10 µM; Activity (Lymphocyte [10]): inactive
41 | > 10 µM | CO[C@@]1(C(=O)c2ccccc2)NC(=O)[C@]2(OC([C@@H](O)[C@@H](O)/C=C/C(C)=O)=C(C)C2=O)[C@H]1O [PSEUROTIN E] | –
42 | > 10 µM | CC/C=C\[C@H](O)[C@H](O)C1=C(C)C(=O)[C@]2(O1)C(=O)N[C@@](O)(C(=O)c1ccccc1)[C@@H]2O [PSEUROTIN F2] | –
43 | 0.26 µM | CC/C=C\[C@H]1O[C@@H]1C1=C(C)C(=O)[C@]2(O1)C(=O)N[C@@](OC)(C(=O)c1ccccc1)[C@@H]2O [SYNERAZOL] | IC50 (Lymphocyte [9]): 3.1 µM; inhibition at 10 µM [2]: 54%; IC50 (K562): > 10 µM; IC50 [3]: > 10 µM
44 | > 10 µM | CC/C=C\[C@H](OC(C)=O)[C@H](OC(C)=O)C1=C(C)C(=O)[C@]2(O1)C(=O)N(C(C)=O)[C@@](OC)(C(=O)c1ccccc1)[C@@H]2OC(C)=O [TETRAACETYLPSEUROTIN A] | –
45 | > 10 µM | CC/C=C\[C@H](OC(C)=O)[C@H](OC(C)=O)C1=C(C)C(=O)[C@]2(O1)C(=O)N[C@@](OC)(C(=O)c1ccccc1)[C@@H]2OC(C)=O [TRIACETYLPSEUROTIN A] | –
